Results published in patent publication US20030109504A1, “Treatment of movement disorders with metabotropic glutamate receptors antagonist” (priority 2000, published 2003).
“Also recorded” adds a separate entry of the source.

Tests used:
[1] = test system: reserpine-treated rat model of Parkinson's disease; test: Locomotion (mobile counts) in reserpine-treated rat model of Parkinson's disease, antagonist combined with chloro-APB or quinpirole; format: in vivo; conditions: for total mobile counts: antagonist 1 mg/kg plus chloro-APB 0.2 mg/kg, versus vehicle plus chloro-APB (FIG. 1)
Method: The effect of metabotropic glutamate receptor antagonists on the anti-parkinsonian effects of chloro-APB (0.2 mg/kg) or quinpirole (0.1 mg/kg) was assessed in a reserpine-treated rat model of Parkinson's disease.
Male Sprague-Dawley rats were split into two groups A and B. Rats in both groups were rendered parkinsonian by subcutaneous administration of reserpine (3 mg/kg) for 18 hours.
After the 18 hours Group A were treated with either chloro-APB (0.2 mg/kg) or quinpirole (0.1 mg/kg) and then subdivided into groups A1, A2 and A3. These subgroups were additionally administered the following selective metabotropic glutamate receptor antagonists (1 mg/kg):
A1: (RS)-1-Aminoindan-1,5-dicarboxylic acid (AIDA—Group I metabotropic glutamate receptor antagonist);
A2: (2S)-alpha-Ethylglutamic acid (EGLU—Group II metabotropic glutamate receptor antagonist); and
A3: (RS)-alpha-Methylserine-O-phosphate (MSOP—Group III metabotropic glutamate receptor antagonist).
Group B were treated with chloro-APB (0.2 mg/kg) and vehicle for the antagonists only.
The locomotion of the rats in Groups A and B was measured over a one hour period using Benwick locomotor monitors. These locomotion monitors consist of a visually-shielded open-field arena, the perimeter of which is surrounded by a series of infra-red beams arranged at 5 cm intervals. PC-based software (Amlogger) assesses the number of beams broken. The number of beams broken as part of a locomotor movement (mobile counts) or the number of beam breaks while the animal is not locomoting (static counts) were measured. In addition, the system assesses the time for which animals are mobile or static.

[2] = test system: MPTP-lesioned marmoset model of Parkinson's disease; test: Mobility, locomotor activity and dyskinesia in MPTP-lesioned marmoset model of Parkinson's disease, combination with L-DOPA; format: in vivo, Marmosets (Callithrix jacchus); conditions: MPTP-lesioned marmosets; for L-DOPA-induced mobility and locomotor activity (reversal of parkinsonism): L-DOPA 8 mg/kg with or without SIB-1893 10 mg/kg (FIG. 3)
Method: The effect of the mGluR group I (selective for mGlu5) receptor antagonist SIB-1893 in combination with L-DOPA was assessed in the MPTP-lesioned marmoset model of Parkinson's disease. The ability of the traditional anti-parkinsonian agent L-DOPA to alleviate symptoms was compared with the combined therapy.
Marmosets (Callithrix jacchus) (bred in a closed colony at the University of Manchester) are rendered parkinsonian by subcutaneous injection of 2 mg kg^−1 MPTP for 5 consecutive days. The marmosets are allowed to recover for a minimum of 10 weeks until their parkinsonism becomes stable. The degree of activity and disability before and after MPTP treatment is assessed using a combination of scales as described below. Animals are then treated with L-DOPA for at least 3 weeks to prime them to elicit dyskinesia.
1) Activity—a quantitative assessment using computer-based activity monitors was obtained every 5 minutes for the duration of the experiment. p1 2) Parkinsonian disability—non-parametric measures based on the following scales:
Mobility score: 0=no movement, 1=movement of head on the floor of the cage, 2=movement of limbs, but no locomotion, on the floor of the cage, 3=movement of head or trunk on wall of cage or perch, 4=movement of limbs, but no locomotion, on wall of cage or perch, 5=walking around floor of cage or eating from hopper on floor, 6=hopping on floor of cage, 7=climbing onto wall of cage or perch, 8=climbing up and down the walls of the cage or along perch, 9=running, jumping, climbing between cage walls/perch/roof, uses limbs through a wide range of motion and activity.
Dyskinesia score: 0Absent, 1=Mild, fleeting, 2=Moderate, not interfering with normal activity, 3=Marked, at times interfering with normal activity, 4=Severe, continuous, replacing normal activity.
The behavioural tests were assessed every 30 minutes for 4 hours, by post hoc analysis of video-recordings by an observer blinded to the treatment.
The treatments were randomised such that on each day all six marmosets received one of the treatments. […]

[3] = reserpine-treated Sprague-Dawley rats, one hour

| Structure (SMILES) | total mobile counts [1, 3] | L-DOPA-induced mobility and locomotor activity (reversal of parkinsonism) [2] | also measured |
| --- | --- | --- | --- |
| NC1(C(=O)O)CCc2cc(C(=O)O)ccc21 (racemic) [AIDA, (RS)-1-Aminoindan-1,5-dicarboxylic acid] | greater than those treated with vehicle and chloro-APB only | – | efficacy in combination therapy (overall conclusion) ([1]; reserpine-treated rats, combination with chloro-APB or quinpirole): particularly effective |
| CC(N)(COP(=O)(O)O)C(=O)O (racemic) [MSOP, (RS)-alpha-Methylserine-O-phosphate] | greater than those treated with vehicle and chloro-APB only | – | – |
| CC[C@](N)(CCC(=O)O)C(=O)O [EGLU, (2S)-alpha-Ethylglutamic acid] | – | – | mobility (locomotion) ([1]; reserpine-treated Sprague-Dawley rats, antagonist 1 mg/kg plus quinpirole 0.1 mg/kg, one hour, versus vehicle plus quinpirole (FIG. 2)): greater mobility than those treated with vehicle and quinpirole only |
| N[C@@H](Cc1ccc(O)c(O)c1)C(=O)O [L-DOPA] | – | good anti-parkinsonian action | – |
| Cc1cccc(C=Cc2ccccc2)n1 [SIB-1893, 2-Methyl-6-(2-phenylethenyl)pyridine] | – | good anti-parkinsonian action; also recorded: as effective as L-DOPA alone in reversing parkinsonism | L-DOPA-induced dyskinesia ([2]; L-DOPA 8 mg/kg plus SIB-1893 10 mg/kg versus vehicle plus L-DOPA, p<0.05 (FIG. 4)): significantly less severe L-DOPA-induced dyskinesia |
